Assay results published in PubChem BioAssay AID256 (DTP/NCI, 2004).
Inconclusive results and toxic doses are left out. Rule for the calls: active = survival T/C of 150% or more; inactive = T/C below 125% in these data.

System: CD2F1 mice, L1210 leukemia ip, survival T/C
Test: NCI In Vivo Anticancer Drug Screen. Data for tumor model L1210 Leukemia (intraperitoneal) in CD2F1 (CDF1) mice
Details: higher = longer survival
Method in brief: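 Mice carrying a transplanted tumor received test compound or vehicle alone. The value is the measurement in the treated group divided by that in the vehicle-treated control group.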

[1] = endpoint: mean survival time, dose: 100.0 mg/kg/injection, schedule: Q01DX001 (ip), vehicle: saline
[2] = endpoint: mean survival time, dose: 200.0 mg/kg/injection, schedule: Q01DX001 (ip), vehicle: saline
[3] = endpoint: mean survival time, dose: 100.0 mg/kg/injection, schedule: Q01DX009 (ip), vehicle: saline with Tween-80
[4] = endpoint: mean survival time, dose: 100.0 mg/kg/injection, schedule: Q04DX003 (ip), vehicle: saline with Tween-80
[5] = endpoint: mean survival time, dose: 200.0 mg/kg/injection, schedule: Q01DX009 (ip), vehicle: saline with Tween-80
[6] = endpoint: mean survival time, dose: 200.0 mg/kg/injection, schedule: Q04DX003 (ip), vehicle: saline with Tween-80
[7] = endpoint: mean survival time, dose: 400.0 mg/kg/injection, schedule: Q01DX009 (ip), vehicle: saline with Tween-80
[8] = endpoint: mean survival time, dose: 400.0 mg/kg/injection, schedule: Q04DX003 (ip), vehicle: saline with Tween-80

Measured: T/C

CCOC(=O)Nc1cc(NCC(O)CN(C)c2ccccc2)c([N+](=O)[O-])c(NC(=O)OCC)n1 (stereo not given)
inactive: endpoint: mean survival time, dose: 100.0 mg/kg/injection, schedule: Q01DX001 (ip), vehicle: carboxymethylcellulose (CMC) 96 % of control | endpoint: mean survival time, dose: 200.0 mg/kg/injection, schedule: Q01DX001 (ip), vehicle: carboxymethylcellulose (CMC) 91 % of control | endpoint: mean survival time, dose: 400.0 mg/kg/injection, schedule: Q01DX001 (ip), vehicle: carboxymethylcellulose (CMC) 87 % of control

CCCN(CCC)S(=O)(=O)c1ccc(NC(=O)OCc2ccccc2)cc1
inactive: [1] 103 % of control | [2] 103 % of control | endpoint: mean survival time, dose: 400.0 mg/kg/injection, schedule: Q01DX001 (ip), vehicle: saline 93 % of control

CCOC(=O)C(C(=O)c1ccccc1)C(c1ccccc1)C(C(=O)OCC)C(=O)c1ccccc1 (stereo not given)
inactive: [3] 94 % of control | [4] 93 % of control | [5] 94 % of control | [6] 90 % of control | [7] 100 % of control | [8] 98 % of control

C1CC[N-]CC1.[Cl][Au]([Cl])[Cl]
inactive: endpoint: mean survival time, dose: 25.0 mg/kg/injection, schedule: Q01DX009 (ip), vehicle: saline with Tween-80 97 % of control | endpoint: mean survival time, dose: 50.0 mg/kg/injection, schedule: Q01DX009 (ip), vehicle: saline with Tween-80 100 % of control | [4] 96 % of control

CCCSc1ccccc1
inactive: [1] 100 % of control | [2] 102 % of control

CCOC(=O)C1=C(C)O/C(=C/c2cccc(Cl)c2)C1=O
inactive: endpoint: median survival time, dose: 50.0 mg/kg/injection, schedule: Q01DX009 (ip), vehicle: saline with Tween-80 107 % of control | endpoint: median survival time, dose: 100.0 mg/kg/injection, schedule: Q01DX009 (ip), vehicle: saline with Tween-80 110 % of control | endpoint: median survival time, dose: 200.0 mg/kg/injection, schedule: Q01DX009 (ip), vehicle: saline with Tween-80 112 % of control

O=c1c(O)c(O)c1=O.[NH2-].[NH2-].[NH2-].[NH2-].[NH2-].[Ru+5]
inactive: endpoint: median survival time, dose: 3.12 mg/kg/injection, schedule: Q01DX005 (ip), vehicle: saline 119 % of control | endpoint: median survival time, dose: 3.12 mg/kg/injection, schedule: Q01DX005 (ip), vehicle: suspension in saline 114 % of control | endpoint: median survival time, dose: 6.25 mg/kg/injection, schedule: Q01DX005 (ip), vehicle: saline 122 % of control | endpoint: median survival time, dose: 6.25 mg/kg/injection, schedule: Q01DX005 (ip), vehicle: suspension in saline 114 % of control | endpoint: median survival time, dose: 12.5 mg/kg/injection, schedule: Q01DX005 (ip), vehicle: suspension in saline 109 % of control | endpoint: median survival time, dose: 25.0 mg/kg/injection, schedule: Q01DX005 (ip), vehicle: saline 116 % of control

CC1CN=C(c2ccc(NC(=O)Nc3ccc(NC(=O)c4ccc(C5=NCC(C)N5)cc4)cc3)cc2)N1 (stereo not given)
inactive: endpoint: mean survival time, dose: 26.0 mg/kg/injection, schedule: Q01DX Z (ip), vehicle: water 90 % of control

CC(=O)c1cno[n+]1[O-]
inactive: endpoint: mean survival time, dose: 5.0 mg/kg/injection, schedule: Q01DX009 (ip), vehicle: saline with Tween-80 97 % of control | endpoint: mean survival time, dose: 10.0 mg/kg/injection, schedule: Q01DX009 (ip), vehicle: saline with Tween-80 113 % of control

Cc1cn(C2CC(O)C(CS[As](C)C)O2)c(=O)[nH]c1=O (stereo not given)
inactive: endpoint: mean survival time, dose: 12.5 mg/kg/injection, schedule: Q01DX005 (ip), vehicle: distilled water + Tween-80 98 % of control | endpoint: mean survival time, dose: 25.0 mg/kg/injection, schedule: Q01DX005 (ip), vehicle: distilled water + Tween-80 102 % of control | endpoint: mean survival time, dose: 50.0 mg/kg/injection, schedule: Q01DX005 (ip), vehicle: distilled water + Tween-80 102 % of control | endpoint: mean survival time, dose: 100.0 mg/kg/injection, schedule: Q01DX005 (ip), vehicle: distilled water + Tween-80 93 % of control

CCCCCCCC/C=C\CCCCCCCC(=O)NCCN(CC)CC
inactive: endpoint: mean survival time, dose: 75.0 mg/kg/injection, schedule: Q01DX001 (ip), vehicle: saline 101 % of control | endpoint: mean survival time, dose: 150.0 mg/kg/injection, schedule: Q01DX001 (ip), vehicle: saline 101 % of control

CCCc1cc(OC)ccc1O
inactive: [3] 96 % of control | [4] 96 % of control | [5] 100 % of control | [6] 94 % of control | [7] 100 % of control | [8] 103 % of control

Cc1sc2ncnc(Cl)c2c1C
inactive: endpoint: mean survival time, dose: 25.0 mg/kg/injection, schedule: Q04DX003 (ip), vehicle: saline with Tween-80 103 % of control | endpoint: mean survival time, dose: 50.0 mg/kg/injection, schedule: Q04DX003 (ip), vehicle: saline with Tween-80 114 % of control | endpoint: mean survival time, dose: 100.0 mg/kg/injection, schedule: Q01DX001 (ip), vehicle: saline with Tween-80 97 % of control | [4] 94 % of control
